# Test results published in paper PMC10481938, “Discovery of new Schistosoma mansoni aspartyl protease inhibitors by structure-based virtual screening” (Memórias do Instituto Oswaldo Cruz, 2023).
# Columns and labels:
# [1] = molecular target: recombinant Schistosoma mansoni cathepsin D-like aspartyl protease 1 (SmCD1) (Schistosoma mansoni, UniProt P91802); test: SmCD1 enzymatic assay (FRET substrate Abz-AIAF/FSRQ-EDDnp); type: biochemical; conditions: for inhibition at 10 µM: read-out: Enzymatic activity inhibition (%) SmCD1; for IC50: recombinant SmCD1, pH 3.5, 95% confidence interval in parentheses; for Binding efficiency index (BEI): BEI = pIC50/MW(kDa), from SmCD1 IC50
# Chain of recombinant Schistosoma mansoni cathepsin D-like aspartyl protease 1 (SmCD1) (P91802 entry or part of it): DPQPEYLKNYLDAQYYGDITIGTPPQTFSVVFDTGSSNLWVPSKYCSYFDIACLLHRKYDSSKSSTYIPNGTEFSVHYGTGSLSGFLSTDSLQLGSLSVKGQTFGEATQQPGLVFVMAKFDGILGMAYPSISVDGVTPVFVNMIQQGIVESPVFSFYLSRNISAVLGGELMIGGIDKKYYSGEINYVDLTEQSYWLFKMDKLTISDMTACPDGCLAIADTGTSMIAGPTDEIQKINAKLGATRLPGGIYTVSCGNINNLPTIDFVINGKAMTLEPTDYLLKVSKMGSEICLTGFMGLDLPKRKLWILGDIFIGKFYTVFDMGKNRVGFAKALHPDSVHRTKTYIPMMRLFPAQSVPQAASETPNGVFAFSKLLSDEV
# Method: SmCD1 cloning, expression and purification - Expression of the recombinant enzyme was previously performed by our group[14] by transfection of the vector with recombinant proSmCD1 gene (proSmCD1r) into culture bottles containing human embryonic kidney (HEK293) cells. After an incubation period of three to five days, the culture medium of the HEK293 cells was collected, filtered, and used for the purification of the recombinant protein. A HisTrap FF column in-tandem with a HiLoad 16/60 Superdex column, connected to an Äkta Xpress system were used for the purification of the protein.
# (§1) SmCD1 enzymatic assay - Initially, 2.5 μg of SmCD1 was added to a reaction medium containing 50 mM sodium acetate buffer with 50 mM NaCl at pH 3.5. […] After incubation, to start the reaction, 10 μM of the substrate octapeptide fluorescent (FRET) Abz-AIAF/FSRQ-EDDnp (102023-1, GenOne) was added to the medium. The substrate hydrolysis reaction product was continuously detected (λex = 310 nm and λem = 420 nm), using a Flex Station III microplate reader (Molecular Devices), during the initial 10 min of the reaction.
# (§2) All enzymatic assays in this work were performed as described above, and repeated at least three times, each condition in triplicate. In tests involving screening of compounds, the percentage of inhibition of enzymatic activity was calculated considering the mean of the negative control as 100% activity.
# (§3) Determination of IC 50 values - For IC50 (inhibitor concentration in which the enzymatic activity is reduced by 50%) determination assays, serial dilutions of the inhibitors were performed, ranging from 1 µM to 500 µM. The IC50 values were determined by fitting SmCD1 activity data into the 4-parameter logistic equation.
# [2] = system: adult worm aqueous extract (AWAE) aspartic protease activity; test: AWAE aspartic protease activity assay; type: biochemical, Schistosoma mansoni; conditions: for IC50: aspartic protease activity of adult worm aqueous extract, with 5 µM E-64, 95% confidence interval in parentheses; for Enzymatic activity inhibition (%) AWAE: 10 μM of compound, average of triplicate of single experiment, CV% in parentheses
# Method: Preparation of adult worm aqueous extract (AWAE) - The extract was prepared from the homogenisation of 1 mL of worms, containing both male and female, in 5 mL of phosphate buffered saline (PBS) + 1% CHAPS, at pH 7.4, using a Turrax disperser. This volume of parasites is roughly equivalent to 20 adult parasites. The homogenate was centrifuged at 20,000 g for 1 hour at 4 °C, and the supernatant stored at -80 °C. An aliquot was used for the protein dosing by the Lowry method (DC^TM protein assay - BIO-RAD).
# […] In tests involving screening of compounds, the percentage of inhibition of enzymatic activity was calculated considering the mean of the negative control as 100% activity.
# (§4) AWAE aspartic protease activity assay - For assaying the aspartyl protease activity present in the AWAE, the same protocol described above for SmCD1 was followed, except for 20 µg of total proteins present in AWAE were added instead of the recombinant SmCD1 enzyme. Additionally, 5 µM of E-64, an inhibitor of cysteinyl proteases, was added to prevent enzymes of this class present in the AWAE[15] to also contribute to substrate hydrolysis on the acidic pH of the assay.
# as §3
# [3] = molecular target: T1, porcine pepsin (Sus scrofa, UniProt P00791); test: Specificity assay toward porcine pepsin; type: biochemical; conditions: for inhibition at 10 µM: 10 μM of compound, average of triplicate of single experiment, CV% in parentheses, read-out: Enzymatic activity inhibition (%) Pepsin; for IC50: porcine pepsin, 95% confidence interval in parentheses
# T1 construct: purchased Difco 0151-17 / 215110
# T1 sequence (P00791 60-385): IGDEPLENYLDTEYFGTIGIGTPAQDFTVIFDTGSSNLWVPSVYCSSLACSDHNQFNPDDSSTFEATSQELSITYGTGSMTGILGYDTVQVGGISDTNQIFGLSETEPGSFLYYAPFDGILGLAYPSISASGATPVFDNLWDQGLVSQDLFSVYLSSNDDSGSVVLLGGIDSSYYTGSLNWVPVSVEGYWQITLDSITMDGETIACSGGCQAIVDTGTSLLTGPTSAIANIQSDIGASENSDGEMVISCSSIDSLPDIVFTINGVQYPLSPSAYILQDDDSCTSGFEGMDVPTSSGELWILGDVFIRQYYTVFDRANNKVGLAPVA
# Method: as §1
# (§5) Specificity assays toward mammalian proteases - For recombinant BtCD and porcine pepsin, the same protocol described above for SmCD1 was followed, except for 10 μg of BtCD or 5 μg of pepsin were added.
# The IC50 values were determined by fitting SmCD1 activity data into the 4-parameter logistic equation.
# [4] = system: aspartic protease activity (porcine pepsin, SmCD1, AWAE); test: Aspartic protease inhibition screening of 50 putative hits (hit criterion); type: biochemical; conditions: 10 µM, SmCD1 or AWAE
# Method: as §1, §2, §4, §5
# The AWAE assay captures the combined activities of all SmAPs present in schistosome adult worms, while excluding the concurrent cysteinyl protease activity, due the addition of the broad-spectrum E-64 inhibitor.
# [5] = molecular target: T2, bovine cathepsin D (BtCD) (Bos taurus, UniProt P80209); test: Specificity assay toward bovine cathepsin D (BtCD); type: biochemical
# T2 construct: purchased Sigma-Aldrich C3138
# T2 sequence (P80209 45-390): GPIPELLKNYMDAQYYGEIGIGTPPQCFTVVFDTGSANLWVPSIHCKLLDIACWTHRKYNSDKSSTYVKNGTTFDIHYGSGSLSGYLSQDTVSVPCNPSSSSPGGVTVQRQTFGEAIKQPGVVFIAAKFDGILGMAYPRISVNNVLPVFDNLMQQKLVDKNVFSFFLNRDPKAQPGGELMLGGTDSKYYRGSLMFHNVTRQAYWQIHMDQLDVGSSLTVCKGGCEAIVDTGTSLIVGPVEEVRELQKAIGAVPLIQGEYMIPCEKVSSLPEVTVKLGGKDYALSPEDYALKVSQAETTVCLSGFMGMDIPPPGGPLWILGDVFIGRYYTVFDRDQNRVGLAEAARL
# Method: as §1, §5
# [6] = system: WSS-1 cells; test: Cytotoxicity assay on human WSS-1 cells (resazurin); type: cell-based; conditions: 48 h
# Method: Cytotoxicity assays on human WSS-1 cells - The cytotoxicity of compounds 5, 19 and 50 was evaluated against normal epithelial cells derived from human kidney (WSS-1, ATCC™ CRL-2029). Cells were seeded in 96-well plates, at 5x10^4 cells/mL, in DMEM high glucose medium supplemented with 10% foetal bovine serum (FBS). After adherence period of 24 h, at 37 °C and 5% CO2, the cells were treated with compounds at 10 µM or 100 μM concentrations and incubated for 44 h. After this time, resazurin solution was added to cells culture, at a final concentration of 0.01 mg/mL. The cells returned to the incubator for another 4 h to complete 48 h total incubation time.[50]
# Fluorescence readings of resorufin (λex = 560 nm, λem = 590 nm) were taken immediately (F0) and 4 hours (F4) after resazurin addition, using Flex Station III. The percentage of viable cells at the end of the experiment, that is, after compounds exposure for 48h, was calculated as follows: […]
# <mml:math><mml:mi>V</mml:mi><mml:mi>i</mml:mi><mml:mi>a</mml:mi><mml:mi>b</mml:mi><mml:mi>l</mml:mi><mml:mi>e</mml:mi><mml:mi> </mml:mi><mml:mi>c</mml:mi><mml:mi>e</mml:mi><mml:mi>l</mml:mi><mml:mi>l</mml:mi><mml:mi>s</mml:mi><mml:mo>=</mml:mo><mml:mfrac><mml:mrow><mml:mi>F</mml:mi><mml:mn>4</mml:mn><mml:mo>-</mml:mo><mml:mi>F</mml:mi><mml:mn>0</mml:mn><mml:mi mathvariant="normal"> </mml:mi><mml:mi mathvariant="normal">t</mml:mi><mml:mi mathvariant="normal">r</mml:mi><mml:mi mathvariant="normal">e</mml:mi><mml:mi mathvariant="normal">a</mml:mi><mml:mi mathvariant="normal">t</mml:mi><mml:mi mathvariant="normal">e</mml:mi><mml:mi mathvariant="normal">d</mml:mi></mml:mrow><mml:mrow><mml:mi>F</mml:mi><mml:mn>4</mml:mn><mml:mo>-</mml:mo><mml:mi>F</mml:mi><mml:mn>0</mml:mn><mml:mi mathvariant="normal"> </mml:mi><mml:mi mathvariant="normal">c</mml:mi><mml:mi mathvariant="normal">o</mml:mi><mml:mi mathvariant="normal">n</mml:mi><mml:mi mathvariant="normal">t</mml:mi><mml:mi mathvariant="normal">r</mml:mi><mml:mi mathvariant="normal">o</mml:mi><mml:mi mathvariant="normal">l</mml:mi></mml:mrow></mml:mfrac><mml:mi mathvariant="normal"> </mml:mi><mml:mi mathvariant="normal">x</mml:mi><mml:mi mathvariant="normal"> </mml:mi><mml:mn>100</mml:mn><mml:mi mathvariant="normal"> </mml:mi></mml:math>
# [7] = system: adult S. mansoni worms; test: Schistosoma mansoni adult worms ex vivo motility assay; type: cell-based; conditions: 10 µM; for effect on female worms motility: late incubation times (48 or 72 h), female adult worms; for killing of adult worms ex vivo (judged by worm motility): up to 72 h, male and female adult worms
# Method: Schistosoma mansoni adult worms ex vivo assay - The effect of 10 µM of the test compounds or PZQ (positive control) on adult S. mansoni worms motility for up to 72 h of incubation at 37 °C and 5% CO2 was evaluated by a high content assay previously developed by our group.[50] Image analysis was carried out in a customised pipeline of the open-source Cellprofiler software v. 4.2.1[51] and consisted of quantifying parasites area (Area measurement of MeasureObjectSizeShape module) and its displacement over pairs of consecutive images (false negative rate measurement of MeasureObjectOverlap module). […] The effects of the experimental treatments on parasites motility were estimated from this model by the integrated nested laplace approximation (INLA) method available in INLA package of R (https://www.r-inla.org). The results were expressed as percentual relative motility considering the estimated effect of the negative control group (0.2% DMSO) for each incubation time as 100%.
# [8] = up to tested concentration 500 μM
Compound,inhibition at 10 µM [1] [%],IC50 [1] [µM],IC50 [2] [µM],inhibition at 10 µM [3] [%],IC50 [3] [µM],inhibition of any of the aspartic protease activity (considered active) [4] [%],Binding efficiency index (BEI) [1],Enzymatic activity inhibition (%) AWAE [2],"inhibition at 500 µM ([5]; highest concentration evaluated, 500 μM (solubility limitation)) [%]",IC50 ([5]; inferred from less than 50% inhibition at 500 μM) [µM],cytotoxicity against WSS-1 cells ([6]; 10 µM),cytotoxicity against WSS-1 cells ([6]; up to 100 µM),effect on female worms motility [7],killing of adult worms ex vivo (judged by worm motility) [7],"inhibition against SmCD1 [1, 8]","inhibition against pepsin [3, 8]",decrease of WSS-1 cell viability ([6]; 100 µM)
O=C(CSc1nc2cc([N+](=O)[O-])ccc2[nH]1)Nc1ccc(F)c(F)c1 [Compound 1],0.4,> 500,> 500,5.6,> 500,≥ 25,,,,,,,,,,,
"Cc1cccc(NS(=O)(=O)c2ccc3[nH]c(=O)c(=O)[nH]c3c2)c1 [Compound 5, 2,3-dioxo-N-(m-tolyl)-1,2,3,4-tetrahydroquinoxaline-6-sulfonamide]",24.3,83.6,135,44.2,92.6,≥ 25,12.3,23.0 (14) %,≤ 45,> 500,neither cytotoxic,non-toxic,slight decrease,nor could kill adult worms,,,
Cc1ccc(C(C)(C)C)c(OCCCNCCN)c1 [Compound 12],-10.5,> 500,315,-3.5,231,≥ 25,,32.0 (11) %,,,,,,,,,
"Cc1cccc(NC(=O)CSc2ncnc3sc4c(c23)CCC(C)C4)c1 (centres unmarked) [Compound 19, 2-((7-methyl-5,6,7,8-tetrahydrobenzo[4,5]thieno[2,3-d]pyrimidin-4-yl)thio)-N-(m-tolyl)acetamide]",-15.3,102,> 500,42.4,23.1,≥ 25,10.4,9.20 (12) %,,,neither cytotoxic,non-toxic,,nor could kill adult worms,,,
CCn1c2ccccc2c2cc(NC(=O)CSC3=C(C#N)C(c4ccccc4F)CC(=O)N3)ccc21 (centres unmarked) [Compound 22],1.8,> 500,> 500,25.4,38,≥ 25,,16.0 (15) %,,,,,,,,,
N=C(Nc1ccccc1)Nc1nc(=O)cc(CSc2nc3ccccc3s2)[nH]1 [Compound 32],12.2,> 500,> 500,34.7,72.5,≥ 25,,,,,,,,,,,
Fc1ccc(-c2ccc(CNCCOc3ccccn3)o2)cc1Cl [Compound 50],3.4,> 500,77.7,10.5,> 500,≥ 25,,34.5 (8) %,,,neither cytotoxic and safe,,slight decrease,nor could kill adult worms,not showing significant inhibition,not showing significant inhibition,more than 90%
pepstatin A [reference compound],,,,,,,,98.7 (7) %,,,,,,,,,
